Where two headings read alike, the source gives them in different places.
Key:
[1] = system: MYB mRNA; test: RT-qPCR splicing assay, MYB mRNA canonical (CJ) and alternative (AJ) junction; type: cell-based, human; settings: Homo sapiens; for AC50: MYB alternative junction mRNA, read-out: MYB AJ (increase in AJ mRNA, AC50)
Summary of the method: (§1)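 A673 or K562 cells treated 24 h at 37 °C with an 11-point 3-fold dilution series (top 10 uM, DMSO ≤0.25%). Lysates went directly to one-step RT-qPCR quantifying canonical (CJ) and alternative-exon (AJ) junctions, normalized to GAPDH, GUSB or PPIA. Values from ΔΔCt versus DMSO, RQ = 2^(−ΔΔCt), expressed as percentage response.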

[2] = system: SMN2 mRNA; test: RT-qPCR splicing assay, SMN2 mRNA; type: cell-based, human; settings: Homo sapiens, canonical junction qPCR panel, Table 4; read-out: SMN2 IC50 (decrease in CJ mRNA levels)
Summary of the method: as §1

[3] = system: K562 cells; test: Cell Titer Glo 2.0 cell viability (toxicity) assay, K562; settings: 500 cells/well, 72 hours
[4] = system: MYB; test: HiBiT protein abundance assay, MYB (K562 HiBiT knock-in); type: cell-based, human; settings: HiBiT knock-in K562 cells, 24 hours, top dose 10 μM
Summary of the method: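 K562 HiBiT knock-in, 24 h, 37 °C, top 10 μM final, 3-fold ×10, DMSO ≤0.25%. Lytic HiBiT luminescence; PC = parental K562, NC = DMSO; 4PL IC50.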

[5] = MYB canonical junction mRNA, RT-qPCR, read-out: MYB CJ (decrease in CJ mRNA levels, IC50)
[6] = canonical junction qPCR panel, Table 4, read-out: MYB IC50 (decrease in CJ mRNA levels)

SMILES	AC50 ([1]; RT-qPCR) [nM]	IC50 [1, 5] [nM]	IC50 [1, 6] [nM]	IC50 [2] [nM]	Effect of Exemplary Compounds on Cell Viability, K562 [3]	IC50 [4] [nM]
CNC(=O)c1nc(-c2cc3cn(C)nc3c(C)c2O)nc2ccc(N3CCC(N4CCC4)CC3)cc12 [Compound 706]	< 100	< 100	< 100	< 100	A (A represents <100 nM)	< 100
C[C@@H]1CN(c2ccc3nc(-c4cc5cn(C)nc5c(F)c4O)nc(C#N)c3c2)C[C@H](C)N1 [Compound 707, 6-[(3R,5S)-3,5-dimethylpiperazin-1-yl]-2-(7-fluoro-6-hydroxy-2-methylindazol-5-yl) quinazoline-4-carbonitrile]	< 100	< 100	< 100	< 100	A (A represents <100 nM)	< 100
C[C@@H]1CN(c2ccc3nc(-c4cc5cn(C)nc5c(F)c4O)nc(C(N)=O)c3c2)C[C@H](C)N1 [Compound 712, 6-[(3R,5S)-3,5-dimethylpiperazin-1-yl]-2-(7-fluoro-6-hydroxy-2-methylindazol-5-yl) quinazoline-4-carboxamide]	< 100	< 100	< 100	< 100	A (A represents <100 nM)	< 100
CC(=O)c1nc(-c2cc3cn(C)nc3c(F)c2O)nc2ccc(N3C[C@@H](C)N[C@@H](C)C3)cc12 [Compound 717, 1-{6-[(3R,5S)-3,5-dimethylpiperazin-1-yl]-2-(7-fluoro-6-hydroxy-2-methylindazol-5-yl)quinazolin-4-yl}ethanone]	< 100	< 100	< 100	< 100	A (A represents <100 nM)	< 100
CNC(=O)c1nc(-c2cc3cn(C)nc3c(F)c2O)nc2ccc(N3CCC(N4CCC4)CC3)cc12 [Compound 722, 6-[4-(azetidin-1-yl)piperidin-1-yl]-2-(7-fluoro-6-hydroxy-2-methylindazol-5-yl)-N-methylquinazoline-4-carboxamide]	< 100	< 100	< 100	< 100	A (A represents <100 nM)	< 100
Cc1cc(N2C[C@@H](C)N[C@@H](C)C2)cc2c(Cl)cc(-c3cc4cn(C)nc4c(F)c3O)nc12 [Compound 723, 5-{4-chloro-6-[(3R,5S)-3,5-dimethylpiperazin-1-yl]-8-methylquinolin-2-yl}-7-fluoro-2-methylindazol-6-ol]	< 100	< 100	< 100	< 100	A (A represents <100 nM)	< 100
CNC(=O)c1nc(-c2cc3cn(C)nc3c(F)c2O)nc2ccc(N3CCNC4(CC4)C3)cc12 [Compound 728, 6-{4,7-diazaspiro[2.5]octan-7-yl}-2-(7-fluoro-6-hydroxy-2-methylindazol-5-yl)-N-methylquinazoline-4-carboxamide]	< 100	< 100	< 100	< 100	A (A represents <100 nM)	< 100
CNC(=O)c1nc(-c2cc3cn(C)nc3c(F)c2O)nc2ccc(N3CC[C@@H](NC)C3)cc12 [Compound 729, 2-(7-fluoro-6-hydroxy-2-methylindazol-5-yl)-N-methyl-6-[(3R)-3-(methylamino)pyrrolidin-1-yl]quinazoline-4-carboxamide]	< 100	< 100	< 100	< 100	A (A represents <100 nM)	< 100
C[C@@H]1CN(c2ccc3nc(-c4cc5cn(C)nc5c(F)c4O)nc(-c4nccs4)c3c2)C[C@H](C)N1 [Compound 732, 5-{6-[(3R,5S)-3,5-dimethylpiperazin-1-yl]-4-(1,3-thiazol-2-yl)quinazolin-2-yl}-7-fluoro-2-methylindazol-6-ol]	> 10000	1000 to 10000	1000 to 10000	100 to 1000	B (B represents 100-1000 nM)	1000 to 10000
C[C@@H]1CN(c2ccc3nc(-c4cc5cn(C)nc5c(F)c4O)nc(C(=O)NCCO)c3c2)C[C@H](C)N1 [Compound 737, 6-[(3R,5S)-3,5-dimethylpiperazin-1-yl]-2-(7-fluoro-6-hydroxy-2-methylindazol-5-yl)-N-(2-hydroxyethyl)quinazoline-4-carboxamide]	100 to 1000	100 to 1000	100 to 1000	< 100	A (A represents <100 nM)	100 to 1000

Source: patent publication US20250092065A1, “2-(INDAZOL-5-YL)-6-(PIPERIDIN-4-YL)-1,7-NAPHTHYRIDINE DERIVATIVES AND RELATED COMPOUNDS AS MODULATORS FOR SPLICING NUCLEIC ACIDS AND FOR THE TREATMENT OF PROLIFERATIVE DISEASES” (REMIX THERAPEUTICS INC., priority 2022, published 2025)
